# Assay results from patent US8058462B2, “Ligand modified poly oxo-hydroxy metal ion materials, their uses and processes for their preparation” (Medical Research Council, priority 2007, dated 2011).
# Experiments:
# Type in all cases: physicochemical
# [1] = In vitro gastrointestinal digestion assay (simulated stomach and duodenum); conditions: pH 1.2
# Procedure: An amount of the solid ligand-modified poly oxo-hydroxy ferric iron materials or control iron materials namely ferrous sulphate, ferric chloride, or unmodified ferric oxo-hydroxide, equivalent to 60 mg elemental iron, were added to a synthetic gastric (stomach) solution (50 mL of 2 g/L NaCl, 0.15 M HCl and 0.3 mg/mL porcine pepsin) and incubated at 37° C. for 30 minutes with radial shaking. […] The mixture was incubated at 37° C. for 60 min with radial shaking. Homogeneous Aliquots (1 mL) were collected at different time points during the process and centrifuged at 13,000 rpm for 10 minutes to separate the aggregate and aquated phases. The supernatant was analysed for iron content by ICPOES. […] The mass of remaining material (i.e. the wet pellet) was recorded. Concentrated HNO3 was added to this wet pellet and the new mass recorded. […] The starting amount of iron was calculated from the iron in the wet pellet plus the iron in the supernatant. To differentiate between soluble iron and aquated particulate iron in the supernatant, at each time point, this fraction was also ultrafiltered (Vivaspin 3,000 Da molecular weight cut-off polyethersulfone membrane, Sartorius Stedium Biotech GmbH, Goettingen, Germany) and again analysed by ICPOES. […]
# [2] = Screening assay: formation (precipitation) of solid poly oxo-hydroxy iron in presence of ligand; conditions: ratios 1:1 to 1:5
# Procedure: A series of dietary ligands was tested in a screening assay for their effects on the formation of solid ligand-modified poly oxo-hydroxy metal ion materials. Briefly, in a centrifuge tube, a fixed volume of stock solution of ferric iron (400 mM FeCl3 with 50 mM MOPS, pH 1.4) was mixed with varying volumes of a stock solution of ligand (400 mM with the exception of maltol which was 200 mM, plus MOPS at 50 mM and 0.9% NaCl) to obtain the desired metal:ligand ratio. The volumes were then equally adjusted to parity with a solution of 50 mM MOPS and 0.9% NaCl. […] A small aliquot was taken to confirm the starting iron concentration and then the pH was raised to ˜6.5 by drop-wise addition of concentrated NaOH to avoid high volume changes. After centrifugation at 2500 rpm for 10 minutes, an aliquot of supernatant was taken to analyse the iron remaining in solution. The remaining supernatant was discarded and a fixed volume of dissolution buffer at pH 6 (MOPS10 mM) or pH 4 (Acetic acid 10 mM) was then added to the wet solid of each tube and incubated overnight at room temperature. The tubes were then centrifuged (2500 rpm for 10 minutes) and an aliquot of supernatant taken to determine the iron that was disaggregated. The iron concentration in each aliquot was measured by ICPOES analysis.
# Initially, the ligands were all tested using the screening assay described above at ratios of 1:1 to 1:5 and classified in three groups.
# [3] = Screening assay: re-dissolution of the wet solid in pH 6 and pH 4 buffers; conditions: solid formed with the ligand
# Procedure: A series of dietary ligands was tested in a screening assay for their effects on the formation of solid ligand-modified poly oxo-hydroxy metal ion materials. […] The volumes were then equally adjusted to parity with a solution of 50 mM MOPS and 0.9% NaCl. […] After centrifugation at 2500 rpm for 10 minutes, an aliquot of supernatant was taken to analyse the iron remaining in solution. […] The iron concentration in each aliquot was measured by ICPOES analysis.
Ligand group by effect on the amount of solid material formed [2],Structure (SMILES),other results
,"O=S(=O)([O-])[O-].[Fe+2] [Ferrous sulphate, ferrous sulphate]",gastric disaggregation and dissolution profile (in words) [1]: disaggregates and dissolves very well
intermediate ligands,O=C(O)CC(O)C(=O)O (centres unmarked) [malic acid],
intermediate ligands,NC(=O)CC[C@H](N)C(=O)O [glutamine],
intermediate ligands,O=C(O)C(O)C(O)C(=O)O (centres unmarked) [tartaric acid],
,Cc1occc(=O)c1O [maltol],re-dissolution of the iron at pH 6.0 (in words) [3]: did not promote any re-dissolution
